Experimental data taken from patent publication US8399681B2, “Substituted aminothiazolone indazoles as estrogen related receptor-alpha modulators” (Janssen Pharmaceutica NV, priority 2009, dated 2013).

Target: T1, ERR1 (also known as ERR-α or ERR-1) (Homo sapiens, UniProt P11474)
T1 sequence (P11474 193-421 limits assumed): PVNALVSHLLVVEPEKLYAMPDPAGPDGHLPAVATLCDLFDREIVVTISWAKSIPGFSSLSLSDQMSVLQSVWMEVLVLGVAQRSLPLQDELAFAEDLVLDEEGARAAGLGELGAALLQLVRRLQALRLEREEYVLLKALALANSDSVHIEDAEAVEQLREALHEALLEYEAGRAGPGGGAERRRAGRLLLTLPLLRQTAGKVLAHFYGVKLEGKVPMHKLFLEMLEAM
Assay: TR-FRET assay (disruption of co-activator peptide binding)
Format: biochemical
Conditions: 6His-tagged ERR1 LBD, GST-hSRC2 co-activator polypeptide; average of 3 independent experiments
Description: Time-Resolved Fluorescence Resonance Energy Transfer (TR-FRET) experiments were performed to examine the functional response of ERR1 (also known as ERR-α or ERR-1) ligands. The TR-FRET assay described herein relied on the conformation of ERR1 for binding to a co-activator peptide: when a test compound binds to ERR1 and alters its conformation, it can disrupt the binding of the co-activator peptide. The components of this homogeneous secondary assay included: the ^6His-tagged-ERR1LBD, a GST-labeled-hSRC2 co-activator polypeptide and a fluorescent donor/acceptor pair from CIS bio international htrf/bioassays (Bedford, Mass.) using both an α-GST Europium Cryptate (Eu) label and an α^6His-XL665 (allophycocyanin) fluorophore.
For TR-FRET measurements, the reaction was buffered in 25 mM Tris pH 8, 2.5 mM Hepes, 20 mM KCl, 1 mM DTT, and 0.05 mg/mL BSA (-lipids). The final concentrations of reagents were 6 nM of ERR1LBD, 6 nM GST-SRC-2 peptide, 30 nM Eu cryptate, and 7.5 nM XL665. Reactions were allowed to reach equilibrium at 25° C. for 4-18 hours before collecting data on the Analyst from LJL Biosystems (Molecular Devices Sunnyvale, Calif.). As a time-resolved method, the samples were excited at […] and emission was collected for 1 ms at both 615 and 665 nm with delays of 400 and 75 μs, respectively. Dose response curves were fitted using a hyperbolic equation and the data reported is the average of 3 independent experiments.

Row | Compound | EC50
1 | CCOC(=O)C1(N)CCN(C2=NC(=O)/C(=C/c3ccc4c(cnn4Cc4ccc(Cl)cc4C(F)(F)F)c3)S2)CC1 [Example 156, 4-Amino-1-{5-[1-(4-chloro-2-trifluoromethyl-benzyl)-1H-indazol-5-ylmethylene]-4-oxo-4,5-dihydro-thiazol-2-yl}-piperidine-4-carboxylic acid ethyl ester] | 58 nM
2 | O=C1N=C(N2CCC(O)(C(=O)O)CC2)S/C1=C\c1ccc2c(cnn2Cc2ccc(Cl)cc2C(F)(F)F)c1 [Example 268, 1-[5-({1-[4-Chloro-2-(trifluoromethyl)benzyl]-1H-indazol-5-yl}methylidene)-4-oxo-4,5-dihydro-1,3-thiazol-2-yl]-4-hydroxypiperidine-4-carboxylic acid] | 15 nM
3 | NC1CN(C2=NC(=O)/C(=C/c3ccc4c(cnn4Cc4ccc(C(F)(F)F)cc4C(F)(F)F)c3)S2)C1 [Example 77, 2-(3-Amino-azetidin-1-yl)-5-[1-(2,4-bis-trifluoromethyl-benzyl)-1H-indazol-5-ylmethylene]-thiazol-4-one] | 58.7 nM
4 | NC(=O)C1CN(C2=NC(=O)/C(=C/c3ccc4c(cnn4Cc4ccc(Cl)cc4C(F)(F)F)c3)S2)CCN1 (stereo not drawn) [Example 273, 4-[5-({1-[4-Chloro-2-(trifluoromethyl)benzyl]-1H-indazol-5-yl}methylidene)-4-oxo-4,5-dihydro-1,3-thiazol-2-yl]piperazine-2-carboxamide] | 6 nM
5 | O=C1N=C(N2CCN(CCO)CC2)S/C1=C\c1ccc2c(cnn2Cc2ccc(C3CC3)cc2C(F)(F)F)c1 [Example 31, 5-[1-(4-Cyclopropyl-2-trifluoromethyl-benzyl)-1H-indazol-5-ylmethylene]-2-[4-(2-hydroxy-ethyl)-piperazin-1-yl]-thiazol-4-one] | 4.6 nM
6 | O=C1N=C(N2CC3CC2CN3)S/C1=C\c1ccc2c(cnn2Cc2ccc(Cl)cc2C(F)(F)F)c1 [Example 100, 5-[1-(4-Chloro-2-trifluoromethyl-benzyl)-1H-indazol-5-ylmethylene]-2-(2S,5S-diaza-bicyclo[2.2.1]hept-2-yl)-thiazol-4-one] | 14 nM
7 | COC[C@@H]1CN(C2=NC(=O)/C(=C/c3ccc4c(cnn4Cc4ccc(Cl)cc4C(F)(F)F)c3)S2)CCN1 [Example 209, 5-({1-[4-Chloro-2-(trifluoromethyl)benzyl]-1H-indazol-5-yl}methylidene)-2-[3-(S)-(methoxymethyl)piperazin-1-yl]-1,3-thiazol-4(5H)-one] | 6 nM
8 | O=C1N=C(N2CCn3cccc3C2)S/C1=C\c1ccc2c(cnn2Cc2ccc(C(F)(F)F)cc2C(F)(F)F)c1 [Example 169, 5-[1-(2,4-Bis-trifluoromethyl-benzyl)-1H-indazol-5-ylmethylene]-2-(3,4-dihydro-1H-pyrrolo[1,2-a]pyrazin-2-yl)-thiazol-4-one] | 225 nM
9 | CN1CCN(C2=NC(=O)/C(=C/c3ccc4c(cnn4Cc4ccc(C(C)(C)O)cc4Cl)c3)S2)CC1 [Example 232, 5-({1-[2-Chloro-4-(1-hydroxy-1-methylethyl)benzyl]-1H-indazol-5-yl}methylidene)-2-(4-methylpiperazin-1-yl)-1,3-thiazol-4(5H)-one] | 795 nM
10 | CN1CCN(C2=NC(=O)/C(=C/c3ccc4c(cnn4Cc4ccc(C#N)cc4C(F)(F)F)c3)S2)CC1 [Compound 10, 4-{5-[2-(4-Methyl-piperazin-1-yl)-4-oxo-4H-thiazol-5-ylidenemethyl]-indazol-1-ylmethyl}-3-trifluoromethyl-benzonitrile] | 199 nM
11 | O=C1N=C(N2CCC(n3ccnc3)CC2)S/C1=C\c1ccc2c(cnn2Cc2ccc(Cl)cc2C(F)(F)F)c1 [Example 159, 5-[1-(4-Chloro-2-trifluoromethyl-benzyl)-1H-indazol-5-ylmethylene]-2-(4-imidazol-1-yl-piperidin-1-yl)-thiazol-4-one] | 36 nM

Results, then the molecule that gave them:

Row | EC50 | Compound
12 | 4 nM | O=C1N=C(N2CCO[C@H](CO)C2)S/C1=C\c1ccc2c(cnn2Cc2ccc(O)cc2C(F)(F)F)c1 [Example 251, 2-[(2S)-2-(Hydroxymethyl)morpholin-4-yl]-5-({1-[4-hydroxy-2-(trifluoromethyl)benzyl]-1H-indazol-5-yl}methylidene)-1,3-thiazol-4(5H)-one]
13 | 24.9 nM | COCCN1CCN(C2=NC(=O)/C(=C/c3ccc4c(cnn4Cc4ccc(C(F)(F)F)cc4C(F)(F)F)c3)S2)CC1 [Example 66, 5-[1-(2,4-Bis-trifluoromethyl-benzyl)-1H-indazol-5-ylmethylene]-2-[4-(2-methoxy-ethyl)-piperazin-1-yl]-thiazol-4-one]
14 | 24.8 nM | COC[C@H]1CN(C2=NC(=O)/C(=C/c3ccc4c(cnn4Cc4ccc(C(F)(F)F)cc4C(F)(F)F)c3)S2)CCN1 [Example 210, 5-({1-[2,4-Bis(trifluoromethyl)benzyl]-1H-indazol-5-yl}methylidene)-2-[3-(R)-(methoxymethyl)piperazin-1-yl]-1,3-thiazol-4(5H)-one]
15 | 57 nM | O=C1N=C(N2C[C@H](O)C[C@H]2C(=O)O)S/C1=C\c1ccc2c(cnn2Cc2ccc(Cl)cc2C(F)(F)F)c1 [Compound 11, 1-{5-[1-(4-Chloro-2-trifluoromethyl-benzyl)-1H-indazol-5-ylmethylene]-4-oxo-4,5-dihydro-thiazol-2-yl}-4-(R)-hydroxy-pyrrolidine-2-(S)-carboxylic acid]
16 | 19.6 nM | O=C1N=C(N2CCN(CC(F)F)CC2)S/C1=C\c1ccc2c(cnn2Cc2ccc(Cl)cc2C(F)(F)F)c1 [Example 61, 5-[1-(4-Chloro-2-trifluoromethyl-benzyl)-1H-indazol-5-ylmethylene]-2-[4-(2,2-difluoro-ethyl)-piperazin-1-yl]-thiazol-4-one]
17 | 14 nM | O=C1N=C(N2CCS(=O)(=O)CC2)S/C1=C\c1ccc2c(cnn2Cc2ccc(Cl)cc2C(F)(F)F)c1 [Example 146, 5-[1-(4-Chloro-2-trifluoromethyl-benzyl)-1H-indazol-5-ylmethylene]-2-(1,1-dioxidothiomorpholin-4-yl)-thiazol-4-one]
18 | 190 nM | CN(C)[C@@H]1CCN(C2=NC(=O)/C(=C/c3ccc4c(cnn4Cc4ccc(C(F)(F)F)cc4C(F)(F)F)c3)S2)C1 [Example 252, 5-({1-[2,4-Bis(trifluoromethyl)benzyl]-1H-indazol-5-yl}methylidene)-2-[(3R)-3-(dimethylamino)pyrrolidin-1-yl]-1,3-thiazol-4(5H)-one]
19 | 16 nM | C[C@@H]1CN(C)CCN1C1=NC(=O)/C(=C/c2ccc3c(cnn3Cc3ccc(C(F)(F)F)cc3C(F)(F)F)c2)S1 [Example 192, 5-({1-[2,4-Bis(trifluoromethyl)benzyl]-1H-indazol-5-yl}methylidene)-2-(2-(R),4-dimethylpiperazin-1-yl)-1,3-thiazol-4(5H)-one]
20 | 26 nM | O=C1N=C(N2CC(C(=O)O)C2)S/C1=C\c1ccc2c(cnn2Cc2ccc(Cl)cc2C2CC2)c1 [Example 94, 1-(5-[1-(4-Chloro-2-cyclopropyl-benzyl)-1H-indazol-5-ylmethylene]-4-oxo-dihydro-thiazol-2-yl)-azetidine-3-carboxylic acid]
21 | 14 nM | O=C1N=C(N2CC3COC(=O)C3C2)S/C1=C\c1ccc2c(cnn2Cc2ccc(Cl)cc2C(F)(F)F)c1 (stereo not drawn) [Example 144, 5-{5-[1-(4-Chloro-2-trifluoromethyl-benzyl)-1H-indazol-5-ylmethylene]-4-oxo-4,5-dihydro-thiazol-2-yl}-hexahydro-furo[3,4-c]pyrrol-1-one]
